Assay results taken from patent US8771680B2, “Topical co-enzyme Q10 formulations and methods of use” (University of Miami, priority 2004, dated 2014).

Legend:
[1] = of cancer patients having progressive disease before treatment; cited from earlier work
[2] = test system: human breast adenocarcinoma cell line (MDA-MB-468); assay: Proliferation of breast adenocarcinoma cell line MDA-MB-468 in in vitro culture; type: cell-based
Description: (§1) Retrieve Q10 stock from −20° C. storage and weigh out approximately 4.4 mg. Transfer Q10 into a 25 mL centrifuge tube. Add 1 mL 2-propanol to centrifuge tube. Vortex and dip in hot water bath (55° C.) to promote dissolution. Add 9 mL of media to centrifuge tube. Vortex and dip in hot water bath (55° C.) if necessary to create a homogenous solution. […] Make serial dilutions to treatment concentrations.
(§2) After subculture (per subculturing cells protocol described above), pipet the desired volume suspension of cells to count (0.25-1 mL) into Coulter Counter Vial (Beckman, Inc.) using an automatic pipette. Insure that the Beckman Coulter® Z1 Cell and Particle Counter is clean by using Coulter CLENZ (Beckman, Inc., Fullerton, Calif.) to flush. Flush apparatus once with Isoton II Diluent. Add Isoton II Diluent to vial containing cells for a total volume of 10 mL. Use output mode of apparatus to count cells twice to ensure accuracy. Average counts together and calculate total cell number per volume.
(§3) Acclimate reagents to 37° C. in water bath. Make stock solution of Q10 as per protocol described above for creating a homogenous solution of Q10 in media. Perform serial dilutions to desired concentrations. Place 2 mL media into respective wells. Subculture flasks as per protocol described above for subculturing cells. […]

[3] = test system: human hepatocellular carcinoma cell line (Hep 3B); assay: Proliferation of hepatocellular carcinoma cell line Hep 3B in in vitro culture; type: cell-based
Description: as §1, §2, §3

[4] = test system: human breast adenocarcinoma cell line (SK-BR-3); assay: Proliferation of breast adenocarcinoma cell line SK-BR-3 in in vitro culture; type: cell-based
Description: as §1, §2, §3

squamous carcinoma cells = assay: Proliferation of squamous carcinoma cells in in vitro culture; type: cell-based; conditions: 48 hour in vitro culture
Description: as §1, §2, §3

[5] = test system: human prostatic adenocarcinoma cell line (PC-3); assay: Proliferation of prostatic adenocarcinoma cell line PC-3 in in vitro culture; type: cell-based
Description: as §1, §2, §3

normal cells (nFIB) = assay: Apoptosis assay (Annexin-VPE) in normal cells; type: cell-based, human; conditions: culture of normal cells
Description: (§4) Cell lines used in the assay were SK-Mel28 and nFIB. Cells (SK-Mel28 and nFIB) were seeded (5×10^4 cells/well) into wells containing either solely medium or medium with treatment and placed in an incubator at 37° C., 5% CO2, and under humidified conditions for 48 hours. Each condition was performed in duplicate and was subjected to the following protocol:
(§5) Apoptosis Analysis as Per Protocol of BD Pharmingen Annexin-VPE Protocol
(§6) Reagents include Annexin V-PE (BD Pharmingen, San Diego, Calif.), 7-AAD (BD Pharmingen, San Diego, Calif.), binding buffer (10×: 0.1 M Hepes/NaOH, 1.4 M NaCl, 25 mM CaCl2) [diluted to 1× (9 mL PBS and 1 mL binding buffer) for use in experiment] (BD Pharmingen, San Diego, Calif.), Trypsin-EDTA (Gibco, Grand Island, N.Y.), and desired Media.
(§7) Add 0.5 mL trypsin to each well, remove trypsin after approximately 10 seconds, and add 0.5 mL trypsin to each well. Place wells in an incubator, observe level of detachment under microscope after 4 minutes, and gently tap sides and bottom to aid in detachment. When cells detach, neutralize with 0.5 mL serum-supplemented medium. Transfer cell solution to centrifuge tubes, centrifuge cells at 2000 RPM for 5 minutes, aspirate supernatant, resuspend in 6 mL PBS, and split 6 mL into three centrifuge tubes (2 mL each). […]

[6] = test system: human osteosarcoma cell line (143B); assay: Proliferation of osteosarcoma cell line 143B in in vitro culture; type: cell-based
Description: as §1, §2, §3

SK-MEL28 tumors = assay: Effect of topical formulation of Coenzyme Q10 on SK-MEL28 tumors in mice; type: in vivo
Description: Subculture flasks as per the cell subculturing protocol described above. After aspirating supernatant, combine pellets from each flask diluted slightly with PBS with a 5 mL pipette. Dilute final cell suspension to contain approximately ten million cells per 100 μL. Transfer cell suspension to micro-centrifuge tubes (2 mL). Place in ice immediately and leave in ice until injected. Anesthetize mice via an intraperitoneal injection with 0.3 cc Aventin. Inoculate each animal subcutaneously with 0.1 cc cell suspension per site. Transfer any remaining cells into a 15 mL centrifuge tube. Dilute to 10 mL with medium. Centrifuge at 2500 RPM for 8 minutes. Aspirate supernatant. Add 10 mL media to centrifuge tube. Create a homogenous cell suspension by pipetting and vortexing. Seed cells in a T75 flask to ensure experimental cell viability.
Melanoma tumors were induced in mice by SK-MEL28 injection into the subcutaneous layer. The animal study consisted of both a control and treatment group each containing four mice. The mice were inoculated with two tumors and the graph of FIG. 14 represents the resulting mean mass for the tumors in each mouse. A topical formulation of Coenzyme Q10 (A 1.0% and 1.5% formulation was tested) was applied to the tumors in the treatment group daily for a period of 30 days. After which, the tumors were excised and the mass was determined. […]

[7] = test system: human prostatic adenocarcinoma cell line (PC-3); assay: Apoptosis analysis by JC-1 stain (mitochondrial polarization, flow cytometry); type: cell-based; conditions: PC-3 cells, 0.2 mM Q10, 24 h
Description: FIG. 28 is a graph showing the effect of CoQ10 on mitochondrial polarization (an indicator of apoptosis) of a human prostatic adenocarcinoma cell line (PC-3) in a 24 hour in vitro culture. PC-3 cell cultures were treated with Q10 at 0.05, 0.1 and 0.2 mM concentrations for 24 h and then treated with JC-1, at 10 microgram/ml., for 30 min. Uptake and levels of green fluorescence was measured in a flow cytometer, FL1 (green fluor.).
Apoptosis was measured using a mitochondrial membrane dye JC-1, 5,5′,6,6′-tetrachloro-1,1′,3,3′-tetraethyl-benzimidazolylcarbocyanine chloride (Molecular Probe, Eugene, Oreg.). Treatments consisting of DMEM-F12 media supplemented with 1×PSA, 5% FBS and 0, 50, 100, and 200 μM concentrations of coenzyme Q10 were prepared in 60×15 mm tissue culture dishes (Costar-Cambride, Mass.). PC-3 cells were seeded at 500,000 cells per dish and incubated for 24 hours. The cells were trypsinized using 2 mL trypsin-EDTA and subjected to centrifugation at 2,500 rpm for 8 minutes. They were resuspended in 1 mL of Ham's F12 medium lacking serum and phenol red (Cascade Biologics, Inc-Portland, Oreg.) and promptly placed on ice. A 1 mg/ml stock solution of JC-1 was prepared using sterile DMSO and 10 μL was added to each cell suspension while gently vortexing. […] The samples were analyzed by flow cytometry for changes in uptake of fluorescent dye. […]

[8] = test system: human neonatal fibroblasts; assay: Proliferation of neonatal fibroblasts in in vitro culture; type: cell-based; conditions: 48 hour in vitro culture
Description: as §1, §2, §3

[9] = test system: human melanoma cell line (SKMEL28); assay: Proliferation of melanoma cell line in in vitro culture (cell counting); type: cell-based
Description: as §1, §2, §3

[10] = test system: breast adenocarcinoma cell line (MCF-7); assay: Proliferation of breast adenocarcinoma cell line MCF-7 in in vitro culture; type: cell-based
Description: as §1, §2, §3

[11] = test system: human neonatal keratinocytes; assay: Proliferation of neonatal keratinocytes in in vitro culture; type: cell-based; conditions: 48 hour in vitro culture
Description: as §1, §2, §3

[12] = test system: human breast adenocarcinoma cell line (BT-20); assay: Proliferation of breast adenocarcinoma cell line BT-20 in in vitro culture; type: cell-based
Description: as §1, §2, §3

[13] = test system: skin cancer cells (SK-Mel28); assay: Apoptosis assay (Annexin-VPE) in skin cancer cells; type: cell-based, human; conditions: culture of skin cancer cells
Description: as §4, §5, §6, §7

NC(=O)c1nnn(Cc2cc(Cl)c(C(=O)c3ccc(Cl)cc3)c(Cl)c2)c1N [CAI, carboxyamidotriazole]
disease stabilization [1]: 49%

COC1=C(OC)C(=O)C(C/C=C(\C)CC/C=C(\C)CC/C=C(\C)CC/C=C(\C)CC/C=C(\C)CC/C=C(\C)CC/C=C(\C)CC/C=C(\C)CC/C=C(\C)CCC=C(C)C)=C(C)C1=O [CoQ10, Coenzyme Q10]
proliferation ([2]; MDA-MB-468, 48 hour in vitro culture): reduces the proliferation | proliferation ([2]; MDA-MB-468, 72 hour in vitro culture): reduces the proliferation | proliferation ([3]; 48 hour in vitro culture): reduces the proliferation | proliferation ([3]; 72 hour in vitro culture): reduces the proliferation | proliferation ([4]; SK-BR-3, 48 hour in vitro culture): reduces the proliferation | proliferation ([4]; SK-BR-3, 72 hour in vitro culture): reduces the proliferation | proliferation (squamous carcinoma cells): reduces the proliferation | proliferation ([5]; PC-3, 48 hour in vitro culture): reduces the proliferation | proliferation ([5]; PC-3, 72 hour in vitro culture): reduces the proliferation | rate of apoptosis (normal cells (nFIB)): but not normal cells | proliferation ([6]; 48 hour in vitro culture): reduces the proliferation | proliferation ([6]; 72 hour in vitro culture): reduces the proliferation | Average tumor mass decreased as compared to the control (SK-MEL28 tumors; 1.0% CoQ10 topically for 30 days): 52.3% | Average tumor mass decreased as compared to the control (SK-MEL28 tumors; 1.5% CoQ10 topically for 30 days): 54.0% | green fluorescence of JC-1 (mitochondrial polarization, an indicator of apoptosis) [7]: significant increase | proliferation [8]: increases the proliferation | proliferation ([9]; SKMEL28, 36 hour in vitro culture): reduces the proliferation | proliferation ([9]; SKMEL28, 48 hour in vitro culture): reduces the proliferation | proliferation ([10]; MCF-7, 48 hour in vitro culture): reduces the proliferation | proliferation ([10]; MCF-7, 72 hour in vitro culture): reduces the proliferation | proliferation [11]: increases the proliferation | proliferation ([12]; BT-20, 48 hour in vitro culture): reduces the proliferation | proliferation ([12]; BT-20, 72 hour in vitro culture): reduces the proliferation | rate of apoptosis [13]: increase the rate of apoptosis
